According to patent US11814367B2, “Inhibitors of glycogen synthase 1 (GYS1) and methods of use thereof” (Maze Therapeutics, Inc., priority 2021, dated 2023):

How the values were obtained:
[1] = test system: hGYS1 enzyme / glycogen synthesis in HeLa cells; assay: GYS1 cell based assay (glycogen synthesis, Glucose-glo); set-up: species or system human; settings: Homo sapiens, HeLa, 24 h, 24 h incubation, 20 mM glucose, geometric mean of at least 2 runs
From the text: The GYS1 cell based assay is a bioluminescent assay that quantifies the glucose resulting from glycogen digestion; the quantified glucose is an indirect measure of GYS1 glycogen synthesis. Newly synthesized glycogen is digested using Glucoamylase; the resulting glucose is quantified by using the Glucose-glo assay kit from Promega. Glucose-glo works by coupling glucose oxidation and NADH production with a bioluminescent system that is activated with NADH. Glucose is oxidized by Glucose dehydrogenase and the reaction reduces NAD+ to NADH; NADH activates Reductase which reduces a pro-luciferin Reductase Substrate to luciferin. Luciferin is detected in a luciferase reaction using Ultra-Glo rLuciferase and ATP, and the luminesce produced is proportional to the glucose in the sample. The luminescence is measured as a single point read in a plate reader.
Compounds that inhibit the hGYS1 enzyme and, subsequently, the glycogen synthesis in cells, were tested using assay ready plates (white, clear bottom 384 well plates) in a final DMSO reaction volume of 1% DMSO. Compounds in the assay ready plates were mixed with media with no additives, except for 20 mM glucose prior to cell addition. HeLa cells were starved in media with no additives, except for 1× Glutamax for 24 h. Starved HeLa cells were plated, in a 1:1 ratio to the media in the assay ready plate and incubated for 24 h at 37° C. and 5% C02. Cells were washed in 1×PBS buffer and lysed in lysis buffer containing 50% 1×PBS and 25% 0.3 N HCl of the final volume in the well or reaction volume; cells were incubated with lysis buffer for 10 minutes and quenched with the remaining 25% of the reaction volume that consisted of 450 mM Tris pH 8.0. Lysates were mixed in a 1:1 ratio with Glucoamylase in 100 mM Sodium Acetate buffer, pH 5.3; the mixture was incubated for 1 h at 37° C. The digested lysate was mixed in a 1:1 ratio with Glucose-glo detection mixture as per vendor recommendations (Luciferase detection buffer, Reductase, Reductase substrate, Glucose dehydrogenase, and NAD) in read-out plates (solid white 384-well plates) and incubated for 1 h at RT. The plates were read using a plate reader with luminescence capabilities. Each compound concentration Relative Luminescence Unit (RLU) was averaged and normalized to the average RLU of the positive and negative controls to obtain a percentage inhibition. The normalized data vs. concentration was plotted; to determine the half-maximal concentration (IC50), the Levenberg-Marquardt algorithm was used to fit a Hill equation to the dose response data.
The results are shown in Table 3 below, which reports the IC50 of each compound. Unless otherwise specified, IC50 values are reported as the geometric mean of at least 2 assay runs on separate days. As shown in the table below, the compounds of the present invention are potent inhibitors of human GYS1. Unless otherwise specified, IC50 values are reported as the geometric mean of at least two assay runs on separate days. Each run represents the average of a technical replicate, where each compound was assayed twice in the same plate. A superscript “#” symbol in Table 3 indicates results from a single assay run.

[2] = target: hGYS1 enzyme (recombinant hGYS1/GN1 protein) (Homo sapiens (Human), UniProt P13807); assay: GYS1 coupled enzyme assay (PK/LDH); type: biochemical; settings: hGYS1/GN1 50 nM, UDP-Glucose 0.8 mM, G6P 1 mM; geometric mean of at least 2 runs
Sequence of hGYS1 enzyme (recombinant hGYS1/GN1 protein) (P13807 whole entry): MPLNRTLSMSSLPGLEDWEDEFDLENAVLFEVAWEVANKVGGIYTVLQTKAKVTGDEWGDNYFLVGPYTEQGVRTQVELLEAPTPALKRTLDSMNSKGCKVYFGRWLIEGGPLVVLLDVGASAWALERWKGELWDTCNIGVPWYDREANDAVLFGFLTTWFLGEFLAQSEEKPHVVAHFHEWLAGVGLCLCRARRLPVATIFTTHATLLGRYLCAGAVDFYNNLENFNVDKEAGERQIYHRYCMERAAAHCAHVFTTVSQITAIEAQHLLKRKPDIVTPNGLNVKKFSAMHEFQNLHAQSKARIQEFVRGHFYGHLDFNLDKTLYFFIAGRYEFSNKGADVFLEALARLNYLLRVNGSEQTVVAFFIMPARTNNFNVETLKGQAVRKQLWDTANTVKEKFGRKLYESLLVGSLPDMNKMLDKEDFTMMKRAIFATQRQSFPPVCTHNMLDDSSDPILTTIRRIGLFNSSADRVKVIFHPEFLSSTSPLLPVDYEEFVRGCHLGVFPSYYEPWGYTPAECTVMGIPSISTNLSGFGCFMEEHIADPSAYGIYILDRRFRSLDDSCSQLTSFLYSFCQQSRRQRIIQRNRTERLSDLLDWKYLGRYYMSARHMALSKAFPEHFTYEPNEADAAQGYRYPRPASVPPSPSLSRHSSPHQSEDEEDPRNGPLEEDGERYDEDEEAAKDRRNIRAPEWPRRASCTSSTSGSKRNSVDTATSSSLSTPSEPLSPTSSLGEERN
Sequence of hGYS1 enzyme (recombinant hGYS1/GN1 protein) (P46976 whole entry partner): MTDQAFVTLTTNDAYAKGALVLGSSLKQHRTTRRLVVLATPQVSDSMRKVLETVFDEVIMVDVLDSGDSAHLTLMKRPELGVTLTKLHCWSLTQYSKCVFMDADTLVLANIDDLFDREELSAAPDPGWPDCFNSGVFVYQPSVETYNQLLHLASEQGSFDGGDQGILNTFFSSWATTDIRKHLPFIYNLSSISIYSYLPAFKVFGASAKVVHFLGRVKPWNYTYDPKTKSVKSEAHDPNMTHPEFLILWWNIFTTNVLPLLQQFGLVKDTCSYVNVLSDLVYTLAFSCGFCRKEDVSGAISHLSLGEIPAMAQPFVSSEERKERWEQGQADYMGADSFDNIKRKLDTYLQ

| IC50 [1] [nM] | IC50 [2] [nM] | SMILES |
| --- | --- | --- |
| > 26300 | 929 | CC(=O)N1C[C@H](F)C[C@H]1C(=O)NC(c1cccc(-c2ccnn2C)c1)c1ccc(C(C)C)c(F)n1 (single isomer, unassigned) [Compound 695, (2S,4R)-1-acetyl-4-fluoro-N-[(S) or (R)-[6-fluoro-5-(propan-2-yl)pyridin-2-yl][3-(1-methyl-1H-pyrazol-5-yl)phenyl]methyl] pyrrolidine-2-carboxamide] |
| 2710 | 103 | CC(=O)N1C[C@H](F)C[C@H]1C(=O)NC(c1cccc(-c2cc(C)n[nH]2)c1)c1ccc(C(C)C)c(F)n1 (single isomer, unassigned) [Compound 696, (2S,4R)-1-acetyl-4-fluoro-N-[(S) or (R)-[6-fluoro-5-(propan-2-yl)pyridin-2-yl][3-(3-methyl-1H-pyrazol-5-yl)phenyl]methyl] pyrrolidine-2-carboxamide] |
| > 10000 | 915 | CC(=O)N(C)[C@H](C)C(=O)N1C[C@H](F)C[C@H]1C(=O)N[C@@H](c1ccccc1)c1ccc(C(C)C)cc1 [Compound 145, (2S,4R)-4-fluoro-1-[(2R)-2-(N-methylacetamido)propanoyl]-N-[(S)-phenyl[4-(propan-2-yl)phenyl]methyl]pyrrolidine-2-carboxamide] |
| > 10000 | 332 | CC(=O)N1CCOCC1C(=O)N1C[C@H](F)C[C@H]1C(=O)N[C@@H](c1ccccc1)c1ccc(C(C)C)cc1 (stereo partly drawn) [Compound 149, (2S,4R)-1-(4-acetylmorpholine-3-carbonyl)-4-fluoro-N-[(S)-phenyl[4-(propan-2-yl)phenyl]methyl]pyrrolidine-2-carboxamide] |
| 2090 | 349 | CC(=O)N1C[C@H]2CC[C@H](C(=O)N3C[C@H](F)C[C@H]3C(=O)N[C@@H](c3ccccc3)c3ccc(C(C)C)cc3)[C@H]2C1 [Compound 177, (2S,4R)-1-[(3aS,4S,6aS)-2-acetyl-octahydrocyclopenta[c]pyrrole-4-carbonyl]-4-fluoro-N-[(S)-phenyl[4-(propan-2-yl)phenyl]methyl]pyrrolidine-2-carboxamide] |
| 3700 | 461 | CC(=O)N1C[C@@H]2C[C@@H]2[C@H]1C(=O)N[C@@H](c1ccccc1)c1ccc(C(C)C)cc1 [Compound 201, (1S,2S,5R)-3-acetyl-N-[(S)-phenyl[4-(propan-2-yl)phenyl]methyl]-3-azabicycl[3.1.0]hexane-2-carboxamide] |
| 4300 | 464 | CC(C)c1ccc([C@@H](NC(=O)[C@@H]2C[C@@H](F)CN2C(=O)Cc2noc(=O)n2C)c2ccccc2)nc1 [Compound 267, (2S,4R)-4-fluoro-1-[2-(4-methyl-5-oxo-4,5-dihydro-1,2,4-oxadiazol-3-yl)acetyl]-N-[(S)-phenyl[5-(propan-2-yl)pyridin-2-yl]methyl]pyrrolidine-2-carboxamide] |
| > 18600 | 149 | CC(C)c1ccc([C@@H](NC(=O)[C@@H]2C[C@@H](F)CN2C(=O)Cn2cnnc2)c2ccccc2)nc1 [Compound 285, (2S,4R)-4-fluoro-N-[(S)-phenyl[5-(propan-2-yl)pyridin-2-yl]methyl]-1-[2-(4H-1,2,4-triazol-4-yl)acetyl]pyrrolidine-2-carboxamide] |
| > 30000 | 147 | CC(C)c1ccc([C@@H](NC(=O)[C@@H]2C[C@@H](F)CN2C(=O)Cc2noc(=O)[nH]2)c2ccccc2)nc1 [Compound 286, (2S,4R)-4-fluoro-1-[2-(5-oxo-4,5-dihydro-1,2,4-oxadiazol-3-yl)acetyl]-N-[(S)-phenyl[5-(propan-2-yl)pyridin-2-yl]methyl]pyrrolidine-2-carboxamide] |
| 700 | 15 | O=C(N[C@@H](c1ccccc1)c1ccc(C2CC2)c(F)n1)[C@@H]1C[C@@H](F)CN1C(=O)Cc1cccn2c(=O)[nH]nc12 [Compound 297, (2S,4R)-N-[(S)-(5-cyclopropyl-6-fluoropyridin-2-yl)(phenyl)methyl]-4-fluoro-1-(2-{3-oxo-2H,3H-[1,2,4]triazolo[4,3-a]pyridin-8-yl}acetyl)pyrrolidine-2-carboxamide] |
| 400 | 9 | CC(C)c1ccc([C@@H](NC(=O)[C@@H]2C[C@@H](F)CN2C(=O)Cc2nn(C)c(=O)[nH]2)c2ccccc2)nc1F [Compound 397, (2S,4R)-4-fluoro-N-[(S)-[6-fluoro-5-(propan-2-yl)pyridin-2-yl](phenyl)methyl]-1-[2-(1-methyl-5-oxo-4,5-dihydro-1H-1,2,4-triazol-3-yl)acetyl] pyrrolidine-2-carboxamide] |
| > 9260 | 350 | O=C(N[C@@H](c1ccccc1)c1ccc(C2CC2)c(F)c1)[C@@H]1C[C@@H](F)CN1C(=O)CN1CCOCC1=O [Compound 423, (2S,4R)-N-[(S)-(4-cyclopropyl-3-fluorophenyl)(phenyl)methyl]-4-fluoro-1-[2-(3-oxomorpholin-4-yl)acetyl]pyrrolidine-2-carboxamide] |
| 2420 | 187 | O=C(N[C@@H](c1ccccc1)c1ccc(C2CC2)c(F)c1)[C@@H]1C[C@@H](F)CN1C(=O)Cc1cc2ccccc2[nH]1 [Compound 460, (2S,4R)-N-[(S)-(4-cyclopropyl-3-fluorophenyl)(phenyl)methyl]-4-fluoro-1-[2-(1H-indol-2-yl)acetyl] pyrrolidine-2-carboxamide] |
| 570 | 26 | CC(C)(C)OC(=O)n1c(CC(=O)N2C[C@H](F)C[C@H]2C(=O)N[C@@H](c2ccccc2)c2ccc(C3CC3)c(F)c2)cc2ccccc21 [Compound 461, tert-butyl 2-{2-[(2S,4R)-2-{[(S)-(4-cyclopropyl-3-fluorophenyl)(phenyl)methyl]carbamoyl}-4-fluoropyrrolidin-1-yl]-2-oxoethyl}-1H-indole-1-carboxylate] |
| 1770 | 100 | CCn1cc(N(C)CC(=O)N2C[C@H](F)C[C@H]2C(=O)N[C@@H](c2ccccc2)c2ccc(C3CC3)c(F)c2)nn1 [Compound 473, (2S,4R)-N-[(S)-(4-cyclopropyl-3-fluorophenyl)(phenyl)methyl]-1-{2-[(1-ethyl-1H-1,2,3-triazol-4-yl)(methyl)amino]acetyl}-4-fluoropyrrolidine-2-carboxamide] |
| 15800 | 103 | O=C(N[C@@H](c1ccccc1)c1ccc(C2CC2)c(F)c1)[C@@H]1C[C@@H](F)CN1C(=O)CCc1n[nH]c(=O)[nH]1 [Compound 493, (2S,4R)-N-[(S)-(4-cyclopropyl-3-fluorophenyl)(phenyl)methyl]-4-fluoro-1-[3-(5-oxo-4,5-dihydro-1H-1,2,4-triazol-3-yl)propanoyl]pyrrolidine-2-carboxamide] |
| 12400 | 661 | Cn1c(CC(=O)N2C[C@H](F)C[C@H]2C(=O)N[C@@H](c2ccccc2)c2ccc(C3CC3)c(F)c2)noc1=O [Compound 494, (2S,4R)-N-[(S)-(4-cyclopropyl-3-fluorophenyl)(phenyl)methyl]-4-fluoro-1-[2-(4-methyl-5-oxo-4,5-dihydro-1,2,4-oxadiazol-3-yl)acetyl]pyrrolidine-2-carboxamide] |
| > 30000 | 2610 | O=C(N[C@H](c1ccccc1)c1ccc(C2CC(F)(F)C2)c(F)n1)[C@@H]1C[C@@H](F)CN1C(=O)Cc1ccc[nH]c1=O [Compound 521, (2S,4R)-N-[(R)-[5-(3,3-difluorocyclobutyl)-6-fluoropyridin-2-yl](phenyl)methyl]-4-fluoro-1-[2-(2-oxo-1,2-dihydropyridin-3-yl)acetyl]pyrrolidine-2-carboxamide] |
| 80 | 5 | CCn1cc(CC(=O)N2C[C@H](F)C[C@H]2C(=O)N[C@@H](c2ccccc2)c2ccc(C3CC(F)(F)C3)c(F)n2)cc(C)c1=O [Compound 523, (2S,4R)-N-[(S)-[5-(3,3-difluorocyclobutyl)-6-fluoropyridin-2-yl](phenyl)methyl]-1-[2-(1-ethyl-5-methyl-6-oxo-1,6-dihydropyridin-3-yl)acetyl]-4-fluoropyrrolidine-2-carboxamide] |
